Assay results taken from ChEMBL document CHEMBL1201862, “PubChem BioAssay data set” (2004).
pEC50: −log10 of the molar value. One block for each molecule: values may come before it. Calls of active or inactive are those of the source.

Experiments:
[1] = target: T1, Delta-type opioid receptor (Homo sapiens, UniProt P41143); assay: HTS Image-Based Screen for Antagonists of the DOR Receptor. [Related pubchem assays (depositor defined):AID1777, AID1785, AID1786, AID2133]; assay type: functional
[2] = target: T1, Delta-type opioid receptor; assay: HTS Image-Based Screen for Agonists of the DOR Receptor. [Related pubchem assays (depositor defined):AID1777, AID1786, AID2133]; assay type: functional
Mu-type opioid receptor = Mu-type opioid receptor (Homo sapiens, UniProt P35372); assay: HTS Image-Based Screen for Agonists of the MOR Receptor. [Related pubchem assays (depositor defined):AID1777, AID1785, AID1786, AID2133]; assay type: functional;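 also: imaging of beta-arrestin GFP recruitment into spots after receptor activation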
Mu-type opioid receptor, sequence (P35372 whole entry): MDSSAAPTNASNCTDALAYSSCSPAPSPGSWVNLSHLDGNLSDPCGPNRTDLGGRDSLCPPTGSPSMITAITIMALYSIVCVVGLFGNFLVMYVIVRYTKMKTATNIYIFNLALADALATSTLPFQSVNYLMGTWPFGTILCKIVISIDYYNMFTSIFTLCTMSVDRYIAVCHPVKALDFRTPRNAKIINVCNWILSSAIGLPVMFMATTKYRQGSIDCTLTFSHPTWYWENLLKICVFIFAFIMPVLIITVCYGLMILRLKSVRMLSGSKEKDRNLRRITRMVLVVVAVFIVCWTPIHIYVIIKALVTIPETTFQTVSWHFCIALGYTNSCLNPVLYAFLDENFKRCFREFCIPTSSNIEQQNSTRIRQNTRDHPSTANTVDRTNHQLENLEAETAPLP

[3] = target: T2, Kappa-type opioid receptor (Homo sapiens, UniProt P41145); assay type: functional
T2 sequence (P41145 whole entry): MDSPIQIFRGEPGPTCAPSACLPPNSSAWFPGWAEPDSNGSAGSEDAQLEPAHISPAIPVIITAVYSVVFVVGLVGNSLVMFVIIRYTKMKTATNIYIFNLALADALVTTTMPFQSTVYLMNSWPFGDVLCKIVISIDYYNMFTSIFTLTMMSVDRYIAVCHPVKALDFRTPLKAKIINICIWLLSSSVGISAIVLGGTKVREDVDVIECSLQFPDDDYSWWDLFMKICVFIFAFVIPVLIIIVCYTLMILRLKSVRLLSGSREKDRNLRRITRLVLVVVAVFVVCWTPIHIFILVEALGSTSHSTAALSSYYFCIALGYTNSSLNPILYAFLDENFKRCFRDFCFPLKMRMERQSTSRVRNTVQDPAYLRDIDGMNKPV

Melanocortin receptor 4 = Melanocortin receptor 4 (Homo sapiens, UniProt P32245); assay type: functional, cell-based;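 also: Cell-based assay with luminescence read-out, confirmatory dose-response testing for agonist activity of biased ligands at MC4R; human U2OS cells with tagged receptor and beta-arrestin; potency of agonists that increase receptor coupling to beta-arrestin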
Melanocortin receptor 4, sequence (P32245 whole entry): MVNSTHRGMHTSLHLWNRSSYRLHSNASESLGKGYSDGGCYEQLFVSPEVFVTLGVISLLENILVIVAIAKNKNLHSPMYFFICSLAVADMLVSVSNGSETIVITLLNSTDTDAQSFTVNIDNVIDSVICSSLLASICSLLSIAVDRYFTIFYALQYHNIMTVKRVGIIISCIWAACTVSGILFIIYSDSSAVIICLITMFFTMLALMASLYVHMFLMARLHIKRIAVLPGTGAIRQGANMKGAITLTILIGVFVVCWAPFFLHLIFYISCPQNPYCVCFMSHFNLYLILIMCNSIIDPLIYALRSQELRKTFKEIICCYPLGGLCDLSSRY

[4] = target: T2, Kappa-type opioid receptor; assay type: functional; remark: listed apart in the source
[5] = target: T3, Nucleotide-binding oligomerization domain-containing protein 1 (Homo sapiens, UniProt Q9Y239); assay: SAR analysis of compounds that inhibit NOD1 - Set 3. [Related pubchem assays (depositor defined):AID1566, AID1575, AID1578, AID1849, AID1852, AID2333, AID2335, AID2466]; assay type: functional
T3 sequence (Q9Y239 whole entry): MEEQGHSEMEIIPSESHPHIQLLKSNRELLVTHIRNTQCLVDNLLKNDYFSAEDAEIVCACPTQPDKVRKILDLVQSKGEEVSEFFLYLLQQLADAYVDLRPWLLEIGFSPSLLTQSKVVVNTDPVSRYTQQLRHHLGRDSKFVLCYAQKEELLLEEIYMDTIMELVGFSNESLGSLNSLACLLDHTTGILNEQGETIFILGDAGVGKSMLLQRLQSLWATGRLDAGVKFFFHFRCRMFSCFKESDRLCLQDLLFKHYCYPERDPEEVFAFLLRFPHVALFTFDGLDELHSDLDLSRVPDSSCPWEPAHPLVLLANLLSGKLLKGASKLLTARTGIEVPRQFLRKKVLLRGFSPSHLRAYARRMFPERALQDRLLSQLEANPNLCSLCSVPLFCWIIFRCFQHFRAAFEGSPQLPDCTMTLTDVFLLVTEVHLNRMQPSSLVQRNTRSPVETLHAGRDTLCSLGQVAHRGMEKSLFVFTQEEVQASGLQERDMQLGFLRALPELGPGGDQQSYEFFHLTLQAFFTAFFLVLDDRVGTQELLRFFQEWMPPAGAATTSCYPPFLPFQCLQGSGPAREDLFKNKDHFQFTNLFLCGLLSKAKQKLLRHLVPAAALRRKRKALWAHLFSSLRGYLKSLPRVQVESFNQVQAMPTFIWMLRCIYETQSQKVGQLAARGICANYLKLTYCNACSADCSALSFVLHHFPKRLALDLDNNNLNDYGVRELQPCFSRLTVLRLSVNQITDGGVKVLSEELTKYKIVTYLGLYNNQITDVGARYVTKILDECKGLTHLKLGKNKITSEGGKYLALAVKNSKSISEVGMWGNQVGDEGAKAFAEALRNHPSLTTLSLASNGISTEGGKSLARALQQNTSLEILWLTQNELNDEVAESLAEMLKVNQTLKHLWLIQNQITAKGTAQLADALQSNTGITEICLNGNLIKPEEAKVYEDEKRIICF

HEK293 = assay: SAR analysis of compounds that are cytotoxic to HEK293 - Set 3. [Related pubchem assays (depositor defined):AID1575, AID1578, AID1848, AID1849, AID2001, AID2333, AID2334, AID2335, AID2337, AID2469]; assay type: functional, cell-based; settings: Homo sapiens
[6] = target: Nucleotide-binding oligomerization domain-containing protein 2 (Homo sapiens, UniProt Q9HC29); assay: NOD2 signaling inhibitors, analog potency, SAR follow-up, cell-based, set 3 (AID 2799); assay type: functional
Tumor necrosis factor = Tumor necrosis factor (Homo sapiens, UniProt P01375); assay: TNFa-triggered NF-kB activation inhibitors, SAR follow-up, cell-based, set 3 (AID 2801); assay type: functional
Tumor necrosis factor, sequence (P01375 whole entry): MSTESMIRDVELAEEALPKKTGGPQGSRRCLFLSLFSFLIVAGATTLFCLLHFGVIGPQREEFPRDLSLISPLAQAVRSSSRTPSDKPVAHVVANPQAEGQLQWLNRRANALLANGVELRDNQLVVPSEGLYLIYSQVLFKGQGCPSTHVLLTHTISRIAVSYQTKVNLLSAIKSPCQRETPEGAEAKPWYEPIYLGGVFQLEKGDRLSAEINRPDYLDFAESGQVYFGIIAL

Coagulation factor XII = target: T4, Coagulation factor XII (Homo sapiens, UniProt P00748); assay: Factor XIIa Dose Response Confirmation from Single Well HTS. [Related pubchem assays (depositor defined):AID701]; assay type: functional
T4 sequence (P00748 whole entry): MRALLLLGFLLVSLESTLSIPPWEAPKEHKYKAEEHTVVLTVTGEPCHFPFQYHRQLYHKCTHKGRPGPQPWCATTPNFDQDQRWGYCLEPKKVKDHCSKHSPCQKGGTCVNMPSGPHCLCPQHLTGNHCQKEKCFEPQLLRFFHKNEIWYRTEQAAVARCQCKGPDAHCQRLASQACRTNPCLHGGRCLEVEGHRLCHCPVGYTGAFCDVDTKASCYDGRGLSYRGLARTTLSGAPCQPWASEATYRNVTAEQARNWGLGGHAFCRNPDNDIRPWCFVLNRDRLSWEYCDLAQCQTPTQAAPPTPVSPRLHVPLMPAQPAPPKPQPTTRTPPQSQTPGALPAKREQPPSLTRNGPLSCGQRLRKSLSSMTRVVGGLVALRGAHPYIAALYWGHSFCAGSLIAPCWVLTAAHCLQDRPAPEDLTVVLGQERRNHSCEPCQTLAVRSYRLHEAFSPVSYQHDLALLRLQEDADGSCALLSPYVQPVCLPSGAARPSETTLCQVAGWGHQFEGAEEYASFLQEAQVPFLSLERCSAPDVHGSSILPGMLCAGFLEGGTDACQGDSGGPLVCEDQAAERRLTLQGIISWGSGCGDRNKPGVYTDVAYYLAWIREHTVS

Genome polyprotein = Genome polyprotein (dengue virus type 2, UniProt P29990); assay: Dengue-2 NS5 methyltransferase inhibitors, primary screen, biochemical, confirmation dose response (AID 588689); assay type: functional
Genome polyprotein, sequence (P29990 2492-3391 limits assumed): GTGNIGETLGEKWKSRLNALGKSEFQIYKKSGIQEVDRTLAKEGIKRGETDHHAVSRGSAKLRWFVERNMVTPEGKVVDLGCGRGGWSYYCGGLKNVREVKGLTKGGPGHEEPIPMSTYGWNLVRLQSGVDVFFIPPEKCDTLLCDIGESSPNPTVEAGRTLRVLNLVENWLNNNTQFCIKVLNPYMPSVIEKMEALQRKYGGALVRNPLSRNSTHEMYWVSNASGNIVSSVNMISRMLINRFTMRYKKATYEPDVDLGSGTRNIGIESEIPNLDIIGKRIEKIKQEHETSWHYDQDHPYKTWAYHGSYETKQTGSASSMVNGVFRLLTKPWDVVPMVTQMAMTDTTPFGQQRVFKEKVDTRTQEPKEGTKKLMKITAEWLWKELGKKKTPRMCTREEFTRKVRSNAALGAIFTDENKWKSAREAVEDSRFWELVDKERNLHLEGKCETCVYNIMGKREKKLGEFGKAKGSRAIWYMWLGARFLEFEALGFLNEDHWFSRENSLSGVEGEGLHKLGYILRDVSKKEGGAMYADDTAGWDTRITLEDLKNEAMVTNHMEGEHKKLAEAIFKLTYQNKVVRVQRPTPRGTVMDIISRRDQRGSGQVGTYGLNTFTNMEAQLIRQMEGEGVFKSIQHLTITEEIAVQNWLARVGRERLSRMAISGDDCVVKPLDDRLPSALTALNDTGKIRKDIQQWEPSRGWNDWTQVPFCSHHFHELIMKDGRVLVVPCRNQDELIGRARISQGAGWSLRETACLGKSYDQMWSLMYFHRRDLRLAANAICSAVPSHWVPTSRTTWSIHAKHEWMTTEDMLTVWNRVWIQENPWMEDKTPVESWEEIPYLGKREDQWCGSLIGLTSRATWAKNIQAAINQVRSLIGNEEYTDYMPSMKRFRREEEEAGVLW

[7] = target: Lysine-specific demethylase 4A (Homo sapiens, UniProt O75164); assay: JMJD2A histone demethylase inhibitors, dose response, selectivity assay for GASC-1 inhibitor project, biochemical, DELFIA europium, cherry-picked samples (AID 488840)
Lysine-specific demethylase 4A, sequence (O75164 whole entry): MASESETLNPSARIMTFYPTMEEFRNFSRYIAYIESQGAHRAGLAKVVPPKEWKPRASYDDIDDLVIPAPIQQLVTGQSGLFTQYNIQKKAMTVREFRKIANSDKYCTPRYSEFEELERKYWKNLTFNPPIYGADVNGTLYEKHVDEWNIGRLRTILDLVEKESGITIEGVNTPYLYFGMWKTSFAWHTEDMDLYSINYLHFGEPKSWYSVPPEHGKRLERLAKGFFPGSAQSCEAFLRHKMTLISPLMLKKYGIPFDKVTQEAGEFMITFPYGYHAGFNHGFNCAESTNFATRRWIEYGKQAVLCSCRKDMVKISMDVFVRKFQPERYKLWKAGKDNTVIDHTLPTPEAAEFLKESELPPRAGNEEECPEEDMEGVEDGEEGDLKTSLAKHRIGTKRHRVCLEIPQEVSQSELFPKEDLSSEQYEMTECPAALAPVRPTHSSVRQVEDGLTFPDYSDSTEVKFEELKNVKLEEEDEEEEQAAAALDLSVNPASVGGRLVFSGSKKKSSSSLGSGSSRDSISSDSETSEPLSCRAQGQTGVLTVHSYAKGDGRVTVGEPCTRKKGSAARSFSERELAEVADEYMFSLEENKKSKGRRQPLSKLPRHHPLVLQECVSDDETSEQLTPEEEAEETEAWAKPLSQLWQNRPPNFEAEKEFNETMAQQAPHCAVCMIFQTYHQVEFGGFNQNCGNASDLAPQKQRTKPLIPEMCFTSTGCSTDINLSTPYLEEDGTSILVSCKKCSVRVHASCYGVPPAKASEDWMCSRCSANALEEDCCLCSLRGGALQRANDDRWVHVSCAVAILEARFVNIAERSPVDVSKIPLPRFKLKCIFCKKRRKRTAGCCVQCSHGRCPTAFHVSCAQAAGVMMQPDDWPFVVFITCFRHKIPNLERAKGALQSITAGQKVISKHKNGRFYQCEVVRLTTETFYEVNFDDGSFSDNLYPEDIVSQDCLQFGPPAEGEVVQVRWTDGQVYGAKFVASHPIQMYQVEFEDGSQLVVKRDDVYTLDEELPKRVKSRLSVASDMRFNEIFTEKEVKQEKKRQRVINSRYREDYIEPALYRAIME

[8] = target: Sphingosine 1-phosphate receptor 1 (Homo sapiens, UniProt P21453); assay: Late stage counterscreen assay for S1P4 antagonists: Fluorescence dose response cell-based screening assay for antagonists of the Sphingosine 1-Phosphate Receptor 1 (S1P1). [Related pubchem assays (depositor defined):AID1510, AID1524, AID1692, AID1853, AID2332, AID489009, AID489017]; assay type: functional
Sphingosine 1-phosphate receptor 1, sequence (P21453 whole entry): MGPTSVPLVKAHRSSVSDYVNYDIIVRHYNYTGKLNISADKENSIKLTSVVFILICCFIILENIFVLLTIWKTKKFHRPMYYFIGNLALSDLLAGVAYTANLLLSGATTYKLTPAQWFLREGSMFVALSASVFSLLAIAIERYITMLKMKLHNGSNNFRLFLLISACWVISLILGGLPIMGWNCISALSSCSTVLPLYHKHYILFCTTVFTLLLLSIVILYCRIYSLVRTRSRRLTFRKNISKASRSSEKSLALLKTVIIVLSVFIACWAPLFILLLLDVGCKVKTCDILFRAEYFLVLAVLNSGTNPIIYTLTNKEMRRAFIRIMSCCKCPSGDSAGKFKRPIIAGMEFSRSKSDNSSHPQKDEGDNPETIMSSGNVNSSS

[9] = target: Sphingosine 1-phosphate receptor 3 (Homo sapiens, UniProt Q99500); assay: Late stage counterscreen assay for S1P4 antagonists: Fluorescence dose response cell-based screening assay for antagonists of the Sphingosine 1-Phosphate Receptor 3 (S1P3). [Related pubchem assays (depositor defined):AID1510, AID1524, AID1692, AID1853, AID2332, AID489009, AID489017]; assay type: functional
[10] = target: Sphingosine 1-phosphate receptor 2 (Homo sapiens, UniProt O95136); assay: Late stage counterscreen assay for S1P4 antagonists: Fluorescence dose response cell-based screening assay for antagonists of the Sphingosine 1-Phosphate Receptor 2 (S1P2). [Related pubchem assays (depositor defined):AID1510, AID1524, AID1692, AID1853, AID2332, AID489009, AID489017]; assay type: functional
Sphingosine 1-phosphate receptor 2, sequence (O95136 whole entry): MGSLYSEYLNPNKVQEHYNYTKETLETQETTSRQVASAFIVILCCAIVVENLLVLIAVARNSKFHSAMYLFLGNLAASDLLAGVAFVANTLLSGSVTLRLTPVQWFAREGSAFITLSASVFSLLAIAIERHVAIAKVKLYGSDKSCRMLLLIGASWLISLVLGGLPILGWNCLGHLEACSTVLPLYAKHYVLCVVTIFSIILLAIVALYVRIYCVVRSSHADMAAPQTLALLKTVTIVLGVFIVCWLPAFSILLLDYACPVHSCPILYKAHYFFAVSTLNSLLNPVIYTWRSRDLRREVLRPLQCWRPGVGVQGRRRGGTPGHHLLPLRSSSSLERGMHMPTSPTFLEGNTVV

[11] = target: Sphingosine 1-phosphate receptor 5 (Homo sapiens, UniProt Q9H228); assay: Late stage counterscreen assay for S1P4 antagonists: Fluorescence dose response cell-based screening assay for antagonists of the Sphingosine 1-Phosphate Receptor 5 (S1P5). [Related pubchem assays (depositor defined):AID1510, AID1524, AID1692, AID1853, AID2332, AID489009, AID489017]; assay type: functional
Sphingosine 1-phosphate receptor 5, sequence (Q9H228 whole entry): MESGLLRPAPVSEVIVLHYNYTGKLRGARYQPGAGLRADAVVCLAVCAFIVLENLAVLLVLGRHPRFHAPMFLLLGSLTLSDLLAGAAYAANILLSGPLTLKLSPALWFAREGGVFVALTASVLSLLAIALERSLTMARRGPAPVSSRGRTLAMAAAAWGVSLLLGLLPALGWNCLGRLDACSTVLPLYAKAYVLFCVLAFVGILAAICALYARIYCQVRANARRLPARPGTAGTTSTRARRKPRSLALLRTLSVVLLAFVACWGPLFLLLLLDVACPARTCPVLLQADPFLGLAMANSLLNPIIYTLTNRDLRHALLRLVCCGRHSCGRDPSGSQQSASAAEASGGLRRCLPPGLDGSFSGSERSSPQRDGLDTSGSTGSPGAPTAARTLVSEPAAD

T1 sequence (P41143 whole entry): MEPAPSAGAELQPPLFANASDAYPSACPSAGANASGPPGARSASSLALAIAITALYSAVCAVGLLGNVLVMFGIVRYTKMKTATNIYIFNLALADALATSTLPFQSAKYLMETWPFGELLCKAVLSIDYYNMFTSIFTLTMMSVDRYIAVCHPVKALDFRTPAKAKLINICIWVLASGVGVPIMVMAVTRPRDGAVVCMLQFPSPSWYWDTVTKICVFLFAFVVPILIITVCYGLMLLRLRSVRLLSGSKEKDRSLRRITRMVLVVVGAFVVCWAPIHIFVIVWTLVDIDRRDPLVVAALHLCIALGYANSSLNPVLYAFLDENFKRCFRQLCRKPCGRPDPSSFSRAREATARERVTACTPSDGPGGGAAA

SMILES: Nc1ccc(C2(c3ccc(N)cc3)c3ccccc3-c3ccccc32)cc1
IC50 [1]: > 32 µM (inactive)
EC50 [2]: > 32 µM (inactive)
EC50 (Mu-type opioid receptor): > 32 µM (inactive)
pEC50 [3]: < 4.46
EC50 (Melanocortin receptor 4): > 89.2 µM (inactive)
pEC50 [4]: 5.08

SMILES: CC(C)C(=O)N(C)C(c1ccccc1)c1c[nH]c2ccccc12 (configuration not stated)
IC50 [5]: > 20 µM (inactive)
IC50 (HEK293): > 20 µM (inactive)
IC50 [6]: > 20 µM (inactive)
IC50 (Tumor necrosis factor): > 20 µM (inactive)

IC50 (Coagulation factor XII): > 50 µM (inactive)
IC50 (Genome polyprotein): 18.7 µM (active)
SMILES: O=C1C(Cl)=C(N2CCOCC2)C(=O)N1c1ccccc1

AC50 [7]: > 60 µM (inactive)
SMILES: COc1ccc(N2CCN(C(=O)CSc3nnc(-c4cccnc4)n3-c3ccccc3)CC2)cc1

IC50 [8]: > 25 µM (inactive)
IC50 [9]: > 25 µM (inactive)
IC50 [10]: 9.5 µM (active)
IC50 [11]: > 25 µM (inactive)
SMILES: Cc1cccc(Cl)c1NC(=O)c1ccc(-c2cc(Cl)ccc2Cl)o1
